In PMC3392958, “Assay Format as a Critical Success Factor for Identification of Novel Inhibitor Chemotypes of Tissue-Nonspecific Alkaline Phosphatase from High-Throughput Screening” (Molecules, 2010):
Like-named read-outs stand apart in the source and are kept apart here.

Assays:
[1] = target: T1, human PLAP (Homo sapiens, UniProt P05187); assay: PLAP luminescent assay (CDP-star); type: biochemical
T1 construct: made in house; host or cells: COS-1 cells, transient expression; dialyzed serum-free conditioned medium
Procedure: (§1) Selectivity of Primary Actives Against other Phosphatases: To assess the selectivity of compounds across the alkaline phosphatase family, luminescent assays were developed for human PLAP and human IAP with the same CDP-Star reagent.
(§2) Development of the novel luminescent TNAP assay using CDP-star substrate and detailed protocol of its application for HTS is described in more detail elsewhere. […] Briefly, the assay was 50 μM CDP-star substrate in assay buffer containing 100 mM DEA-HCl (pH 9.8), 1 mM MgCl2, and 20 μM ZnCl2. The luminescence signal was measured after a 30-min incubation at room temperature on an EnVision plate reader (PerkinElmer, Waltham, MA). […] Detailed protocols can be found in the respective AIDs, however, the final buffer conditions were 100 mM DEA, pH 9.8, 1.0 mM MgCl2, 0.02 mM ZnCl2 for both PLAP and IAP.

[2] = target: T2, IAP (Homo sapiens, UniProt P09923); assay: IAP luminescent assay (CDP-star); type: biochemical
T2 construct: made in house; host or cells: COS-1 cells, transient expression; dialyzed serum-free conditioned medium
T2 sequence (P09923 20-503 limits assumed): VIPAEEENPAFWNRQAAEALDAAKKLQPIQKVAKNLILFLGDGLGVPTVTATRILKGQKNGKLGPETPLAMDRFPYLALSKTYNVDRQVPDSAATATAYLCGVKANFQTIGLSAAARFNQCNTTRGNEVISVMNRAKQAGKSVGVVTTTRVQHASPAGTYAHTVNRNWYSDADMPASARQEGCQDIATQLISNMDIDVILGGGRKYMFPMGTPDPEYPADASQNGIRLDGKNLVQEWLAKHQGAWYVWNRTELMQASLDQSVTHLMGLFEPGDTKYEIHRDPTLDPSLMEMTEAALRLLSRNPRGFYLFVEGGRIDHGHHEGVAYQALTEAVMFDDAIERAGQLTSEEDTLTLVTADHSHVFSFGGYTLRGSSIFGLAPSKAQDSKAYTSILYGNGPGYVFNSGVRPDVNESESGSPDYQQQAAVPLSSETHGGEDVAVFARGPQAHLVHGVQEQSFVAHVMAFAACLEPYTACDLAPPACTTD
Procedure: as §1, §2

[3] = target: T3, TNAP (Homo sapiens, UniProt P05186); assay: TNAP luminescent assay (CDP-star substrate, 100 mM DEA); type: biochemical; conditions: for improvement in TNAP potency over parent compound: MLS-0091995 vs CID-646303, MLS-0111547 vs MLS-0004120
T3 construct: made in house; host or cells: COS-1 cells, transient expression; dialyzed serum-free conditioned medium
T3 sequence (P05186 18-501 limits assumed): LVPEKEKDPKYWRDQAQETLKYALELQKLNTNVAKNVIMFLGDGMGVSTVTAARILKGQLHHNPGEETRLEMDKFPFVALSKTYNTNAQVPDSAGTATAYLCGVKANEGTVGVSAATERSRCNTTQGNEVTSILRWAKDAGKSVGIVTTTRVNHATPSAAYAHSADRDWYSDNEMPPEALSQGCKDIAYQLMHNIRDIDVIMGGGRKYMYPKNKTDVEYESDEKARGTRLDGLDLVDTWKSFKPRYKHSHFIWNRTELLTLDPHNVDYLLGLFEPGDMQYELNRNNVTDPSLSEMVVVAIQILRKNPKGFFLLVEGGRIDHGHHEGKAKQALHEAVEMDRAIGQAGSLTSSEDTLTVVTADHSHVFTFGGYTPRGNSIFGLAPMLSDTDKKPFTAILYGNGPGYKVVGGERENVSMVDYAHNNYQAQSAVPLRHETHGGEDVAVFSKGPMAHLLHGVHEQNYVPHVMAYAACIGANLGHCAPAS
Procedure: as §2

[4] = target: T3, TNAP; assay: TNAP colorimetric malachite green phosphate detection (MG) assay; type: biochemical; conditions: fresh solid samples from vendors; read-out: IC50 SAR-MG
Procedure: (§3) The colorimetric TNAP assay was performed as previously described with slight modifications.

[5] = target: T3, TNAP; design: method as in PMID 19556612; conditions: three DEA concentrations tested; cited from earlier work
[6] = target: T3, TNAP; assay: TNAP colorimetric assay (pNPP substrate, OD405, 1M DEA); type: biochemical
Procedure: as §3

[7] = catechol series, read-out: PLAP IC50
[8] = catechol series, read-out: IAP IC50
[9] = TNAP, read-out: IC50 (Figure 6, pyrazole series optimization)
[10] = luminescence-based assay, 0.1M DEA, read-out: TNAP IC50
[11] = read-out: Selectivity Panel IC50 PLAP
[12] = compounds from MLSMR in liquid form, read-out: IC50 HTS-Lumi
[13] = fresh solid samples from vendors, read-out: IC50 SAR-Lumi
[14] = read-out: Selectivity Panel IC50 TNAP
[15] = read-out: Selectivity Panel IC50 IAP
[16] = compounds from MLSMR in liquid form, read-out: IC50 HTS-Color
[17] = fresh solid samples from vendors, read-out: IC50 SAR-Color
[18] = phtalimide triazole series, read-out: IC50 TNAP- Lumi
[19] = phtalimide triazole series, read-out: IC50 IAP-Lumi
[20] = bisarylsulfonamide series, NA = inactive (up to 100 µM), read-out: TNAP-Lumi IC50
[21] = optimized pyrazole series, read-out: TNAP Lumi IC50

T1 sequence (P05187 23-506 limits assumed): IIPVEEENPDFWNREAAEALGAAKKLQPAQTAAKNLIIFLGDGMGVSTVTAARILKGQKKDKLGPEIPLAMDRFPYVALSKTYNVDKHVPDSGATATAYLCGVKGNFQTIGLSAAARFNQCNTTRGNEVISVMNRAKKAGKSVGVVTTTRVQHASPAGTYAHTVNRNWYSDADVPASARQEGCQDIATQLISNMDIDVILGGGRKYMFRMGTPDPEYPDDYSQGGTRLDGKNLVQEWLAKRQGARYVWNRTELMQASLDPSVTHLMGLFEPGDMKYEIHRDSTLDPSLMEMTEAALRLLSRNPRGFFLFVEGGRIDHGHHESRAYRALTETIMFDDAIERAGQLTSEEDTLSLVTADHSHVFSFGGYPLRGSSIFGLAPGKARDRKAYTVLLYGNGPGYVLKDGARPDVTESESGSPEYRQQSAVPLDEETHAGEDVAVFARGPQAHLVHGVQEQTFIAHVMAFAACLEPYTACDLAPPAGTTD

With O=C(Cn1ccnc1)c1ccc(O)c(O)c1 [Compound 1] the IC50 [1, 7] was 2100 nM and the IC50 [2, 8] was 30200 nM.
In the case of O=C(CNc1nc2ccccc2[nH]1)c1ccc(O)c(O)c1 [Compound 2], the IC50 [1, 7] is reported as 9100 nM.
Work on O=C(O)c1[nH]nc2c1COc1ccccc1-2 [MLS-0004120] yielded an IC50 [3, 9] of 1300 nM and an IC50 [3, 10] of 1330 nM.
For O=C(O)c1cc(-c2ccccc2Cl)[nH]n1 [MLS-0005718], the IC50 [4] is given as over 100000 nM, the IC50 [1, 11] is given as over 100000 nM and the “mechanism of TNAP inhibition with respect to DEA” value (shortened to “mechanism of TNAP inhibition”) [5] is given as “competitive”. It also gave an IC50 [3, 9] of 1000 nM, an IC50 [3, 12] of 980 nM and an IC50 [3, 13] of 740 nM. For the same compound, the IC50 [3, 14] was 740 nM, the IC50 [2, 15] was 44000 nM and the IC50 [6, 16] was over 100000 nM. For the same compound, the IC50 [6, 17] was over 100000 nM.
In the case of COc1ccc(C)cc1S(=O)(=O)Nc1cccnc1 [MLS-0010847], the IC50 [4] is reported as 950 nM, the IC50 [1, 11] is reported as over 100000 nM and the IC50 [3, 12] is reported as 1800 nM. The IC50 [3, 13] was 930 nM, the IC50 [3, 14] was 930 nM and the IC50 [2, 15] was over 100000 nM. The IC50 [6, 16] was 710 nM and the IC50 [6, 17] was 830 nM.
For Oc1cc(-c2cccc3ccccc23)[nH]n1 [MLS-0039961], the IC50 [4] is listed as 74000 nM, the IC50 [1, 11] is listed as over 100000 nM and the “mechanism of TNAP inhibition” value [5] is listed as “noncompetitive”. For the same compound, the IC50 [3, 12] was 3200 nM, the IC50 [3, 13] was 4600 nM and the IC50 [2, 15] was over 100000 nM. The IC50 [6, 16] was 21000 nM and the IC50 [6, 17] was 46000 nM.
In the case of O=C1C2CC=CCC2C(=O)N1c1n[nH]c(Cc2ccccc2)n1 (centres unmarked) [MLS-0067142], the IC50 [4] is listed as over 100000 nM, the IC50 [1, 11] is listed as 3100 nM and the “mechanism of TNAP inhibition” value [5] is listed as “competitive”. It also gave an IC50 [3, 12] of 240 nM, an IC50 [3, 18] of 210 nM and an IC50 [3, 14] of 190 nM. For the same compound, the IC50 [2, 19] was 540 nM, the IC50 [2, 15] was 540 nM and the IC50 [6, 16] was over 100000 nM. It also gave an IC50 [6, 17] of over 100000 nM.
With COc1ccc(OC)c(S(=O)(=O)Nc2cccnc2)c1 [MLS-0068486] the “reduction in TNAP potency compared with the lead structure CID-2931238” value [3] was “roughly 4 fold” and the IC50 [3, 20] was 920 nM.
With COc1ccc(S(=O)(=O)Nc2cnc3ccccc3c2)cc1OC [MLS-0090842] the “activity against TNAP in vitro” value ([3]; luminescence-based assay) was “inactive”.
In the case of COc1cccc(S(=O)(=O)Nc2cnc3ccccc3c2)c1 [MLS-0090844], the “reduction in TNAP potency compared with the lead structure CID-2931238” value [3] is reported as 100 fold and the IC50 [3, 20] is reported as 25700 nM.
With O=S(=O)(Nc1cnc2ccccc2c1)c1ccccc1 [MLS-0090845] the IC50 [3, 10] was over 100000 nM.
In the case of O=C1C2CC=CCC2C(=O)N1c1nnc(-c2ccco2)[nH]1 (centres unmarked) [MLS-0091966], the IC50 [3, 18] is reported as 4680 nM, the “selectivity for IAP over TNAP” value [2] is reported as 10 fold and the IC50 [2, 19] is reported as 410 nM.
In the case of O=C1C2CC=CCC2C(=O)N1c1nnc(-c2cccnc2)[nH]1 (centres unmarked) [MLS-0091977], the IC50 [3, 18] is reported as 10500 nM and the “selectivity for IAP over TNAP” value [2] is reported as 6 fold.
Work on O=C1c2ccccc2C(=O)N1c1nc(Cc2ccccc2)n[nH]1 [MLS-0091978] yielded an IC50 [3, 18] of 670 nM.
In the case of O=C1C2CC=CCC2C(=O)N1c1nnc[nH]1 (centres unmarked) [MLS-0091980], the “activity against TNAP in vitro” value ([3]; luminescence-based assay) is reported as “elimination of activity”, the IC50 [3, 18] is reported as over 100000 nM and the “activity against IAP” value [2] is reported as “elimination of activity”. For the same compound, the IC50 [2, 19] was over 100000 nM.
In the case of O=C1C2CCCCC2C(=O)N1c1nc(Cc2ccccc2)n[nH]1 (centres unmarked) [MLS-0091981], the IC50 [3, 18] is reported as 1570 nM and the IC50 [2, 19] is reported as 1100 nM.
Compound O=C1C2C3C=CC(C3)C2C(=O)N1c1n[nH]c(CCc2ccccc2)n1 (centres unmarked) [MLS-0091982] has an IC50 [3, 18] of 30600 nM.
In the case of O=C1C2CCCCC2C(=O)N1c1nc(CCc2ccccc2)n[nH]1 (centres unmarked) [MLS-0091984], the IC50 [3, 18] is reported as over 100000 nM.
In the case of O=C1C2CC=CCC2C(=O)N1c1nnc(CCc2ccccc2)[nH]1 (centres unmarked) [MLS-0091987], the IC50 [3, 18] is reported as 27900 nM, the “selectivity for IAP over TNAP” value [2] is reported as 40 fold and the IC50 [2, 19] is reported as 720 nM.
For COC(=O)c1cc(-c2ccc(Cl)cc2Cl)n[nH]1 [MLS-0091995], the “improvement in TNAP potency over parent compound” value [3] was 2 fold and the IC50 [3, 10] was 500 nM.
In the case of O=C(c1[nH]nc2c1COc1ccccc1-2)N1CCCC1 [MLS-0111547], the “improvement in TNAP potency over parent compound” value [3] is reported as 3 fold, the IC50 [3, 9] is reported as 500 nM and the IC50 [3, 10] is reported as 480 nM.
With COc1ccc(OC)c(S(=O)(=O)Nc2ccc3ncccc3c2)c1 [MLS-0111639] the “activity against TNAP in vitro” value ([3]; luminescence-based assay) was “eliminates activity”.
In the case of COc1ccc(OC)c(C(=O)Nc2cnc3ccccc3c2)c1 [MLS-0111666], the “activity against TNAP in vitro” value ([3]; luminescence-based assay) is reported as “inactive”.
In the case of COc1ccc(OC)c(CNc2cnc3ccccc3c2)c1 [MLS-0111667], the “activity against TNAP in vitro” value ([3]; luminescence-based assay) is reported as “inactive”.
NNC(=O)c1cc(-c2ccc(Cl)cc2Cl)n[nH]1 [MLS-0146145] showed an IC50 [3, 21] of 52 nM.
Work on CN(C)C(=O)c1cc(-c2ccc(Cl)cc2Cl)n[nH]1 [MLS-0146148] yielded an IC50 [3, 21] of 75 nM.
In the case of CC(C)NC(=O)c1cc(-c2ccc(Cl)cc2Cl)n[nH]1 [MLS-0146149], the IC50 [3, 21] is reported as 24 nM.
O=C(NCCO)c1cc(-c2ccc(Cl)cc2Cl)n[nH]1 [MLS-0146161] showed an IC50 [3, 21] of 20 nM.
In the case of O=C(NCCO)c1cc(-c2cc(F)c(Cl)cc2Cl)n[nH]1 [MLS-0146165], the IC50 [3, 21] is reported as 42 nM.
Cc1cc(C)nc(SCC(=O)c2ccc(O)c(O)c2)n1 [MLS-0315687] gave an IC50 ([3]; catechol series, read-out: TNAP IC50) of 8600 nM and an IC50 [2, 8] of 49500 nM.
In the case of CCc1nccn1CC(=O)c1ccc(O)c(O)c1 [MLS-0315848], the “selectivity as inhibitor of PLAP over IAP” value ([1]; catechol series) is reported as “over 27 fold”, the “selectivity as inhibitor of PLAP over TNAP” value ([1]; catechol series) is reported as “over 27 fold” and the IC50 [1, 7] is reported as 4200 nM.
With Cc1nc2ccccc2n1CC(=O)c1ccc(O)c(O)c1 [MLS-0315854] the “selectivity as inhibitor of PLAP over IAP” value ([1]; catechol series) was 10 fold and the “selectivity as inhibitor of PLAP over TNAP” value ([1]; catechol series) was 40 fold.
For Cc1cnn(CC(=O)c2ccc(O)c(O)c2)c1 [MLS-0390945], the “selectivity as inhibitor of PLAP over IAP” value ([1]; catechol series) was over 25 fold and the “selectivity as inhibitor of PLAP over TNAP” value ([1]; catechol series) was “more than 50 fold”.
